In brackets after ≈: the same amount, converted by molar mass.
Legend:
[1] = target: T1, pancreatic lipase type II (PL) from porcine pancreas (Sus scrofa, UniProt P00591); experiment: PL inhibition assay; assay type: biochemical; settings: p-nitrophenyl dodecanoate substrate, pH 8.4, 37 °C; NA: not active
T1 construct: purchased Sigma-Aldrich L-SLBD2433V (printed); host or cells: porcine pancreas
T1 sequence (P00591 1-450): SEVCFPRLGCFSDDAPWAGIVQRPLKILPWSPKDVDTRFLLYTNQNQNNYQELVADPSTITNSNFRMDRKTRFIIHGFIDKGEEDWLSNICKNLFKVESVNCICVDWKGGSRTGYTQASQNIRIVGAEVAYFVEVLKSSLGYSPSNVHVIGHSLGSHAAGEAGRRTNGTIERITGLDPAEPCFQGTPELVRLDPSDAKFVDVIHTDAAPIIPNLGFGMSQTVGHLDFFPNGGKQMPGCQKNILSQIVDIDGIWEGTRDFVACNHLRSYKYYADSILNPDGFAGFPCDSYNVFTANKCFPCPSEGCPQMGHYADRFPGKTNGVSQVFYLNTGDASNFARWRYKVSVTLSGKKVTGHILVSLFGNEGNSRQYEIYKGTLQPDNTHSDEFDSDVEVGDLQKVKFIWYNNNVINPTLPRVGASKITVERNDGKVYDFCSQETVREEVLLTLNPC
Excerpt: (§1) The enzymes used in this study were pancreatic lipase type II (PL) from porcine pancreas (100–400 units/mg protein, L-SLBD2433V, EC. 3.1.1.3, Sigma-Aldrich, San Luis, MO, USA) and α-glucosidase (AG) type I from Saccharomyces cerevisiae (lyophilized powder, ≥10 units/mg protein, L-SLBX6245, EC 3.2.1.20, Sigma-Aldrich, San Luis, MO, USA). 4-nitrophenyl dodecanoate (Sigma-Aldrich, San Luis, MO, USA) was used as the substrate for PL while 4-nitrophenyl-α-D-glucopyranoside (Sigma-Aldrich, San Luis, MO, USA) for AG. Absorbance readings were performed in a Multiskan GO microplate reader (Thermo Scientific®, Waltham, MA, USA).
Determination of enzymatic inhibition of the identified compounds against the PL enzyme was carried out following the methodology described in the literature with some modifications. The concentrations were evaluated for compounds from 300 to 6.25 µM. […] In 96-well boxes, 30 μL of extract or compound stock solution, 30 μL of PL solution (200 U/mL), and 160 μL of Tris-HCl buffer (0.1 M, pH: 8.4) were mixed. The mixture obtained was pre-incubated for 30 min at 37 °C. Subsequently, 30 μL of p-nitrophenyl dodecanoate (100 μM) were added to complete a final volume of 250 μL and incubated for 40 min at 37 °C. After the incubation time, the absorbance was measured at 405 nm. All assays were performed in triplicate in two independent assays. IC50 values were estimated by nonlinear regression analysis. Statistically significant differences in biological effects of inhibitors (compounds) were analyzed and compared using the ANOVA test, supplemented by Tukey HSD post hoc analysis. All reported data corresponded to the average of three repetitions ± SD, and the statistical significance considered was p < 0.05.

[2] = target: T1, pancreatic lipase type II (PL) from porcine pancreas; experiment: Kinetic study on PL (Ki, type of inhibition); assay type: biochemical; settings: for Pancreatic Lipase Inhibition Type: Lineweaver–Burk, abbreviated UC, C, NC, M in Table S1; for Ki: nonlinear regression of enzyme inhibition kinetics
Excerpt: as §1
(§2) Kinetic studies to determine the type of inhibition were performed with PL and AG using a methodology the same as that described in the inhibitory activity assays. […] Five substrate concentrations were used for each of the enzymes in the range between 12.5 to 200 μM p-nitrophenyl dodecanoate for PL and 25 to 800 μM for p-nitrophenyl-α-D-glucopyranoside in AG. Kinetic experiments were performed in triplicate in two independent experiments. Inhibition constants (Ki) were calculated from (substrate) vs reaction rate curves using nonlinear regression of the enzyme inhibition kinetic function. Additionally, the inhibition mechanism was graphically determined by applying the double reciprocal Lineweaver–Burk regression function.

[3] = test system: AG; settings: cited from earlier work
[4] = target: T2, α-glucosidase (AG) type I from Saccharomyces cerevisiae (Saccharomyces cerevisiae, UniProt P53341); experiment: biochemical; settings: α-Glucosidase IC50, p-nitrophenyl-α-D-glucopyranoside substrate, pH 7.2, 37 °C; NA: not active
T2 construct: purchased Sigma-Aldrich L-SLBX6245 (printed); host or cells: Saccharomyces cerevisiae
T2 sequence (P53341 whole entry): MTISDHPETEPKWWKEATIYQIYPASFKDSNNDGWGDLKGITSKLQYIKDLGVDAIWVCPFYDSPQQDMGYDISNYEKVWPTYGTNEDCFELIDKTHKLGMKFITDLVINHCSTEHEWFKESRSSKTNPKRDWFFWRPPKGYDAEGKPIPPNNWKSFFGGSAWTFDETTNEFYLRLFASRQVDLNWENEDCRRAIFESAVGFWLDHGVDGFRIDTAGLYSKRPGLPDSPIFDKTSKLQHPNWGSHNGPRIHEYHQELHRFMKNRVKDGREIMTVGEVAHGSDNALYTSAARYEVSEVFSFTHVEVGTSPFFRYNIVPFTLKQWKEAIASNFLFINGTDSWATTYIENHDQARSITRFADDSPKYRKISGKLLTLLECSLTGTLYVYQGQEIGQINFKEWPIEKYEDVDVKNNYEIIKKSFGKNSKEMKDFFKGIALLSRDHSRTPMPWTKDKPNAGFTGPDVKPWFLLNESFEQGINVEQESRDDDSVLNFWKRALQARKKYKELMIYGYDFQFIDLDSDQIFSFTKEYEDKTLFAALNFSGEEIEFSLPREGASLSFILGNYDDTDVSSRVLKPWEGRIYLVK
Excerpt: as §1
Determination of enzyme inhibition of the compounds identified against the AG enzyme was carried out following the methodology described in the literature with some modifications. The concentrations were evaluated for compounds from 300 to 6.25 µM. […] In 96-well boxes, 10 μL of stock solution of each extract or compound, 20 μL of GA solution (0.5 U/mL), and 200 μL of phosphate buffer (0.1 M, pH: 7.2) were mixed. The mixture obtained was pre-incubated for 30 min at 37 °C. […] After the reaction time, the absorbance at 405 nm was measured. […] Statistically significant differences in the biological effects of inhibitors (compounds) were analyzed and compared using ANOVA, supplemented by Tukey HSD post hoc analysis. […]

[5] = target: T2, α-glucosidase (AG) type I from Saccharomyces cerevisiae; experiment: Kinetic study on AG (Ki, type of inhibition); assay type: biochemical; settings: for α-Glucosidase Inhibition Type: Lineweaver–Burk, abbreviated M, NC in Table S1; for Ki: nonlinear regression of enzyme inhibition kinetics
Excerpt: as §1, §2

[6] = test system: chemokine receptor CCR5; design: method as in PMID 14561515; settings: cited from earlier work

| IC50 [1] [µM] | Ki [2] [µM] | SMILES | Pancreatic Lipase Inhibition Type [2] | other results |
| --- | --- | --- | --- | --- |
| 36.3 ± 6.5 | 18 | CC(C)=CCCC1(C)C=Cc2cc(C(=O)O)cc(CC=C(C)C)c2O1 (stereo not drawn) [Compound 3, gaudichaudianic acid] | Competitive |  |
| 33.8 ± 5.95 | 7.88 | CC(C)=CCC/C(C)=C/C(=O)c1cc(C(=O)O)cc(CC=C(C)C)c1O [Compound 1, (2′E) cumenic acid] |  |  |
| 36.2 ± 5.05 | 8.46 | CC(C)=CCC/C(C)=C\C(=O)c1cc(C(=O)O)cc(CC=C(C)C)c1O [Compound 2, (2′Z) cumenic acid] |  | melting point: 132 to 134 °C |
| 55.8 ± 2.98 | 42.8 | COC(=O)c1cc(CC=C(C)C)c(O)c(C(=O)C=C(C)CCC=C(C)C)c1 [Compound 8, 3-(3,7-Dimethyl-octa-2,6-dienoyl)-4-hydroxy-5-(3-methyl-but-2-enyl)-benzoic acid methyl ester] | Mixed |  |
| 48.3 ± 2.57 | 48.3 | CC(C)=CC(=O)c1ccccc1O [Compound 5, 1-(2-Hydroxy-phenyl)-3-methyl-but-2-en-1-one] | Noncompetitive |  |

The remaining lines, values behind:

| SMILES | IC50 [1] [µM] | Ki [2] [µM] | Pancreatic Lipase Inhibition Type [2] | other results |
| --- | --- | --- | --- | --- |
| O=C(/C=C/C=C/c1ccc2c(c1)OCO2)N1CCCCC1 [piperine] |  |  |  | IC50 on AG [3]: 147 µg/mL (≈ 515 µM) |
| CCCCCCCCCCC[C@@H](C[C@@H]1OC(=O)[C@H]1CCCCCC)OC(=O)[C@H](CC(C)C)NC=O [Orlistat, reference compound] |  |  | Irreversible |  |
| CCCCC1(O)CC(C)(C)Oc2ccccc21 (stereo not drawn) [Compound 6, 4-Butyl-2,2-dimethyl-chroman-4-ol] | 28.3 ± 2.9 | 28.3 | Noncompetitive | IC50 [4]: 154 ± 4.65 µM; α-Glucosidase Inhibition Type [5]: mixed-type; Ki [5]: 51.3 µM |
| CC(C)=CCCC(C)=CC(O)c1ccc2c(c1)C=CC(C)(C)O2 (stereo not drawn) [Compound 7, 1-(2,2-Dimethyl-2H-chromen-6-yl)-3,7-dimethyl-octa-2,6-dien-1-ol] | 33.1 ± 5.28 | 25.4 | Competitive | IC50 [4]: 134 ± 5.6 µM; α-Glucosidase Inhibition Type [5]: Noncompetitive; Ki [5]: 136 µM |
| C[C@H]1O[C@H](O[C@H]2[C@H](O)[C@@H](O)[C@@H](O[C@H]3[C@H](O)[C@@H](O)C(O)O[C@@H]3CO)O[C@@H]2CO)[C@H](O)[C@@H](O)[C@@H]1N[C@H]1C=C(CO)[C@@H](O)[C@H](O)[C@H]1O (stereo partly drawn) [Acarbose, reference compound] |  |  |  | α-Glucosidase Inhibition Type [5]: Competitive |
| CO[C@H]1C=CC(=O)N1C(=O)CCc1ccccc1 [chaplupyrrolidone B] |  |  |  | IC50 [3]: 430 µM |
| COc1ccc(C(=O)O)cc1CC=C(C)C [Compound 4, 4-methoxy-3-(3′-methyl-2’-butenyl)benzoic acid] |  |  |  | Pancreatic Lipase IC50 [1]: did not show any activity; melting point: 112 to 113 °C; ability to bind to the chemokine receptor CCR5 [6]: confirmed |
